Assay results taken from patent EP4603105A1, “PHARMACEUTICAL COMPOSITION CONTAINING CYCLIC COMPOUND HAVING SELECTIVE KRAS INHIBITORY EFFECT AGAINST HRAS AND NRAS” (CHUGAI SEIYAKU KABUSHIKI KAISHA, priority 2022, dated 2024).

How the values were obtained:
[1] = target: GDP-bound NRAS wild-type protein (Homo sapiens, UniProt P01111); experiment: Binding to NRAS by surface plasmon resonance (SPR), KD and KD ratio to KRAS; conditions: ratio of KD for GDP-bound NRAS wild-type protein to KD for KRAS
In short: (§1)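 Captured GDP-RAS (~100–300 RU) was exposed to increasing compound concentrations, 75 s per step, in running buffer with 10 µM GDP, 10 mM MgCl2 and 4% DMSO at pH 7.4.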

HRAS wild-type protein = HRAS wild-type protein (Homo sapiens, UniProt P01112); experiment: Binding to HRAS by surface plasmon resonance (SPR), KD and KD ratio to KRAS; conditions: ratio of KD for HRAS wild-type protein to KD for KRAS
In short: as §1

[2] = system: human lung cancer strain NCI-H441; format: cell-based
In short: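 Step one: dispense the test compound in serial DMSO dilutions. Step three: add the reagent and measure […].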

Chain of GDP-bound NRAS wild-type protein (P01111 whole entry): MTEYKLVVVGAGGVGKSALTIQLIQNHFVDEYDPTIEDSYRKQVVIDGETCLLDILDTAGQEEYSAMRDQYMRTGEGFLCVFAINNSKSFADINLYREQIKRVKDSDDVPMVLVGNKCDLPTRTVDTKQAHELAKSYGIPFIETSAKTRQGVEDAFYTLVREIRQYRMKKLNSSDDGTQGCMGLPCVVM
Chain of HRAS wild-type protein (P01112 whole entry): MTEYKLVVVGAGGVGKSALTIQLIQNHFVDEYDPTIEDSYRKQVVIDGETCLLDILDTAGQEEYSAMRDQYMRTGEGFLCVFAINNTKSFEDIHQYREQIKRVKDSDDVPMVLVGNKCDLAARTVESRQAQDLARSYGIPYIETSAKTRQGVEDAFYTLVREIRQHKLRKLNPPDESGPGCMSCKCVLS

**Q.** `CCO[C@@H]1C[C@H]2C(=O)NC3(CCC3)C(=O)N(C)[C@@H](C3CCCC3)C(=O)N(C)[C@H](C(=O)N(C)CC)CC(=O)N(C)[C@@H](CC3CCC3)C(=O)N[C@@H]([C@@H](C)CC)C(=O)N(C)CC(=O)N(C)[C@H]3C/C=C\CCN(C3=O)[C@@H](Cc3ccc(C(F)(F)F)cc3)C(=O)N(C)CC(=O)N[C@@H](CCc3ccc(C(F)(F)F)c(OC)c3)C(=O)N2C1` [PP2825] was tested. Which “NRAS /KRAS” value [1] did it give?
**A.** A (a compound having 10 or more and less than 20 is denoted as A)

**Q.** What about the “HRAS /KRAS” value (HRAS wild-type protein) of the same compound?
**A.** B (a compound having 3 or more and less than 10 is denoted as B)

**Q.** What about the IC50 [2] of the same compound?
**A.** 7.6 nM

**Q.** How did the “NRAS /KRAS” value [1] turn out when `CCO[C@@H]1C[C@H]2C(=O)NC3(CCC3)C(=O)N(C)[C@@H](C3CCCC3)C(=O)N(C)[C@H](C(=O)N(C)CC)CC(=O)N(C)[C@@H](CC3CCC3)C(=O)N[C@@H]([C@@H](C)CC)C(=O)N(C)CC(=O)N(C)[C@H]3C/C=C\CCN(C3=O)[C@@H](Cc3ccc(C(F)(F)F)cc3)C(=O)N(C)CC(=O)N[C@@H](CCc3ccc(C(F)(F)F)c(Cl)c3)C(=O)N2C1` [PP2826] was run?
**A.** A (a compound having 10 or more and less than 20 is denoted as A)

**Q.** What about the “HRAS /KRAS” value (HRAS wild-type protein) of the same compound?
**A.** A (a compound having 10 or more and less than 20 is denoted as A)

**Q.** And the IC50 [2]?
**A.** 8.6 nM

**Q.** How did the “NRAS /KRAS” value [1] turn out when `CCO[C@@H]1C[C@H]2C(=O)NC3(CC(C)(C)C3)C(=O)N(C)[C@@H](C3CCCC3)C(=O)N(C)[C@H](C(=O)N(C)CC)CC(=O)N(C)[C@@H](CC(C)C)C(=O)N[C@@H]([C@@H](C)CC)C(=O)N(C)CC(=O)N(C)[C@H]3C/C=C\CCN(C3=O)[C@@H](Cc3ccc(C(F)F)cc3)C(=O)N(C)CC(=O)N[C@@H](CCc3ccc(Cl)c(Cl)c3)C(=O)N2C1` [PP2827] was run?
**A.** A (a compound having 10 or more and less than 20 is denoted as A)

**Q.** And the “HRAS /KRAS” value (HRAS wild-type protein)?
**A.** B (a compound having 3 or more and less than 10 is denoted as B)

**Q.** What about the IC50 [2] of the same compound?
**A.** 21 nM

**Q.** How did the “NRAS /KRAS” value [1] turn out when `CCO[C@@H]1C[C@H]2C(=O)NC3(CC(C)(C)C3)C(=O)N(C)[C@@H](C3CCCC3)C(=O)N(C)[C@H](C(=O)N(C)CC)CC(=O)N(C)[C@@H](CC(C)C)C(=O)N[C@@H]([C@@H](C)CC)C(=O)N(C)CC(=O)N(C)[C@H]3C/C=C\CCN(C3=O)[C@@H](Cc3ccc(C(F)F)cc3)C(=O)N(C)CC(=O)N[C@@H](CCc3ccc(C(F)(F)F)c(OC)c3)C(=O)N2C1` [PP2828] was run?
**A.** A (a compound having 10 or more and less than 20 is denoted as A)

**Q.** What about the “HRAS /KRAS” value (HRAS wild-type protein) of the same compound?
**A.** A (a compound having 10 or more and less than 20 is denoted as A)

**Q.** What about the IC50 [2] of the same compound?
**A.** 5 nM

**Q.** Which “NRAS /KRAS” value [1] does the source give for `CCO[C@@H]1C[C@H]2C(=O)NC3(CC(C)(C)C3)C(=O)N(C)[C@@H](C3CCCC3)C(=O)N(C)[C@H](C(=O)N(C)CC)CC(=O)N(C)[C@@H](CC(C)C)C(=O)N[C@@H]([C@@H](C)CC)C(=O)N(C)CC(=O)N(C)[C@H]3C/C=C\CCN(C3=O)[C@@H](Cc3ccc(C(F)F)cc3)C(=O)N(C)CC(=O)N[C@@H](CCc3ccc(C(F)(F)F)c(Cl)c3)C(=O)N2C1` [PP2829] here?
**A.** A (a compound having 10 or more and less than 20 is denoted as A)

**Q.** What about the “HRAS /KRAS” value (HRAS wild-type protein) of the same compound?
**A.** A (a compound having 10 or more and less than 20 is denoted as A)

**Q.** And the IC50 [2]?
**A.** 7.9 nM

**Q.** What does the source list for `CCCOC[C@H]1C(=O)N[C@@H]([C@@H](C)CC)C(=O)N(C)CC(=O)N(C)[C@H]2C/C=C\CCN(C2=O)[C@@H](Cc2ccc(C(F)(F)F)cc2)C(=O)N(C)CC(=O)N[C@@H](CCc2ccc(C(F)(F)F)c(Cl)c2)C(=O)N2C[C@H](OCC)C[C@H]2C(=O)NC2(CCC2)C(=O)N(C)[C@@H](C2CCCC2)C(=O)N(C)[C@H](C(=O)N(C)CCC)CC(=O)N1C` [PP2831]?
**A.** NRAS /KRAS [1]: A (a compound having 10 or more and less than 20 is denoted as A); HRAS /KRAS (HRAS wild-type protein): A (a compound having 10 or more and less than 20 is denoted as A); IC50 [2]: 14.1 nM

**Q.** How did the “NRAS /KRAS” value [1] turn out when `CCO[C@@H]1C[C@H]2C(=O)NC3(CC(C)(C)C3)C(=O)N(C)[C@@H](C3CCCC3)C(=O)N(C)[C@H](C(=O)N(C)C)CC(=O)N(C)[C@@H](CC(F)(F)F)C(=O)N[C@@H]([C@@H](C)CC)C(=O)N(C)CC(=O)N(C)[C@H]3C/C=C\CCN(C3=O)[C@@H](Cc3ccc(C(F)(F)F)cc3)C(=O)N(C)CC(=O)N[C@@H](CCc3ccc(Cl)c(Cl)c3)C(=O)N2C1` [PP2832] was run?
**A.** A (a compound having 10 or more and less than 20 is denoted as A)

**Q.** What about the “HRAS /KRAS” value (HRAS wild-type protein) of the same compound?
**A.** A (a compound having 10 or more and less than 20 is denoted as A)

**Q.** And the IC50 [2]?
**A.** 4.8 nM
